Laboratory results as given in patent US20090246265A1, “ABUSE DETERRENT TRANSDERMAL FORMULATIONS OF OPIATE AGONISTS AND AGONIST-ANTAGONISTS” (AllTranz Inc., priority 2008, published 2009).
Entries after “also recorded” stand apart in the source; their conditions may differ. Structures can show the parent of a compound that is named as a salt.

Experiments:
[1] = In vitro diffusion (permeation and accumulation) studies through human skin, PermeGear flow through diffusion apparatus
[2] = Solubility in the pressure sensitive adhesive matrix; assay type: physicochemical; conditions: Durotak Elite 87-900A PSA
Description: Thus, the suspension was mixed and poured to 20 mil thickness.
Thus, the suspension and 3 solutions of NTX prodrugs were mixed and poured to 20 mil thickness.
Three patch formulations for testing were prepared. The patch formulations included naltrexone-HCl, naltrexone-HCl coated with cellulose acetate phthalate and an isobutyryl ester prodrug of naltrexone. The naltrexone-HCl and cellulose acetate phthalate complex was prepared using the methods described in Example 2. The patch formulations also included buprenorphine in a concentration of 2% w/w or 20 mg of buprenorphine per […] of pressure sensitive adhesive. […] The PSA admixture was poured onto Scotch PAK 1022 Release Liner 3.0 mil 3M™, spread to an even 20 mil thickness with an 8 path wet film applicator by Gardco®. The matrices were allowed to dry at 40° C. and finally the Cotran 9715 Film 3M™ as a backing membrane was applied.

[3] = Release of buprenorphine and naltrexone from patch placed in methanol or ethanol; assay type: physicochemical; conditions: patch with 2% buprenorphine
Source text: Methanol and ethanol are two media that could potentially be used to dissolve a patch for the purpose of extracting the opiate in the patch by a potential abuse. Thus, an antagonist complex such as NTX-CAP should release in a rapid manner in order to be able to block the opiates effect if injected or ingested. FIG. 6 is a representative profile of the release characteristics of naltrexone coated with cellulose acetate phthalate in methanol and ethanol.
This ratio corresponds to the amount of naltrexone necessary to cause a narcotic blockade at the opiate receptors.

[4] = Example 7, NTX-CAP and buprenorphine base bi-layer patch
[5] = Example 7, NTX•HCl and buprenorphine base bi-layer patch
[6] = Example 7, NTX•HCl and buprenorphine base bi-layer patch, 24 h
[7] = Example 7, NTX•HCl and buprenorphine base bi-layer patch, after 24 h
[8] = Example 8, NTX-CAP and buprenorphine base bi-layer patch
[9] = Example 8, NTX•HCl and buprenorphine base bi-layer patch, 24 h
[10] = Example 8, NTX•HCl and buprenorphine base bi-layer patch, after 24 h
[11] = Example 8, NTX•HCl and buprenorphine bi-layer patch, n=1

## CO[C@@]12CC[C@@]3(C[C@@H]1[C@](C)(O)C(C)(C)C)[C@H]1Cc4ccc(O)c5c4[C@@]3(CCN1CC1CC1)[C@H]2O5 [BUP from bi-layer, buprenorphine]
[1]; [4]
  Flux: 0.39 ± 0.05 nmol/cm^2/h
  Lag time: 10.6 ± 0.28 h
[1]; Example 7, NTX-CAP and buprenorphine base bi-layer patch, 24 h
  Cumulative: 9.3 ± 1.2 nmol
[1]; Example 7, NTX-CAP and buprenorphine base bi-layer patch, after 24 h
  Drug in skin: 0.43 ± 0.01 µmol/g
[1]; [5]
  Flux: 0.23 ± 0.06 nmol/cm^2/h
  Lag time: 10.0 ± 2.6 h
  buprenorphine flux, times higher than naltrexone: 11.2 times
[1]; [6]
  Cumulative: 5.5 ± 0.7 nmol
[1]; [7]
  Drug in skin: 0.35 ± 0.01 µmol/g
[1]; [8]
  Cumulative: 24.6 ± 10.8 nmol
  Drug in skin: 0.50 ± 0.04 µmol/g
  Flux: 1.05 ± 0.65 nmol/cm^2/h
  Lag time: 8.2 ± 0.6 h
  total permeation: 11.65 µg
[1]; [9]
  Cumulative: 18.5 nmol
[1]; [10]
  Drug in skin: 0.37 µmol/g
[1]; [11]
  Flux: 0.6 NA* nmol/cm^2/h
  Lag time: 9.5 h
[2]
  solubility in pressure sensitive adhesive (matrix): freely soluble

## O=C1CC[C@@]2(O)[C@H]3Cc4ccc(O)c5c4[C@@]2(CCN3CC2CC2)[C@H]1O5 [NTX•HCl, naltrexone hydrochloride]
[1]; [5]
  Flux: 0.02 ± 0.03 nmol/cm^2/h
  Lag time: 14.6 NA* h
[1]; Example 7, NTX•HCl and buprenorphine base bi-layer patch, 24 h, listed as NTX•HCl from bi-layer, hydrochloride
  Cumulative: 0.3 ± 0.5 nmol
[1]; [7]
  Drug in skin: 0.29 ± 0.03 µmol/g
[1]; Example 8, NTX•HCl and buprenorphine base bi-layer patch, 24 h, listed as NTX•HCl from bi-layer, hydrochloride
  Cumulative: 2.3 nmol
[1]; [10]
  Drug in skin: 0.30 µmol/g
[1]; [11]
  Flux: 0.0 NA* nmol/cm^2/h
[3]; ethanol, 0 min
  Release ratio of BUP:NTX: 9.9
[3]; ethanol, 10 min
  Release ratio of BUP:NTX: 7.2
[3]; ethanol, 30 min
  Release ratio of BUP:NTX: 4.6
[3]; ethanol, 60 min
  Release ratio of BUP:NTX: 4.1
[3]; methanol, 0 min
  Release ratio of BUP:NTX: 7.8
[3]; methanol, 10 min
  Release ratio of BUP:NTX: 6.5
[3]; methanol, 30 min
  Release ratio of BUP:NTX: 6.5
[3]; methanol, 60 min
  Release ratio of BUP:NTX: 6.1
[2]; hydrochloride
  solubility in pressure sensitive adhesive (matrix): Neither NTX.HCl nor CAP-NTX were soluble; also recorded: not soluble
[2]; listed as naltrexone-HCl, hydrochloride
  solubility in pressure sensitive adhesive (matrix): suspensions

## O=C1CC[C@@]2(O)[C@H]3Cc4ccc(O)c5c4[C@@]2(CCN3CC2CC2)[C@H]1O5 [naltrexone]
[1]; Example 6, bi-layer patch with NTX only, 24 hours
  Cumulative: 7.3 nmol
[1]; [6]
  Cumulative: 0.3 nmol
[1]; [9]
  Cumulative: 2.3 nmol
[2]
  solubility in pressure sensitive adhesive (matrix): not soluble
